# Laboratory results as given in article PMC11795524, “Melanin-Binding-Based Discovery of Topically Instilled Carbonic Anhydrase Inhibitors for Targeted Delivery and Prolonged Action in the Eye” (Molecular Pharmaceutics, 2025).
# Where “and” joins values, the source holds several entries; their conditions need not be identical. Identical values can stand only once.
# How the values were obtained:
# [1] = test system: pigmented rabbits (Chinchilla Bastard); assay: IOP study in pigmented rabbits after single eye drop; assay type: in vivo, rabbit
# Description: Five 3–5 months old albino (New Zealand White, all females) and five 3–6 months old pigmented rabbits (Chinchilla Bastard, 1 male and 4 females) were purchased from Charles River Laboratories, UK and Germany, respectively. Prior to the experiments, the rabbits were habituated to handling, and the baseline values of IOP were measured. During the experiments, rabbits weighed 2.4–4.0 kg.
# First, stock solutions of CAIs (250 mg/mL) in dimethyl sulfoxide (Sigma-Aldrich, Germany) were prepared. These stock solutions were diluted with PBS (pH 7.4) to obtain 1 mg/mL (0.1%) or 10 mg/mL (1%) solutions.
# The CAI solutions were tested in albino rabbits (eye drops of 0.1, and 0.5 or 1.0%) and in pigmented rabbits (0.5 or 1.0%). The novel CAI concentrations in solutions were determined based on the drug solubility with the aim to load the highest possible drug concentration to the single eye drop.
# Baseline IOP of pigmented rabbits was raised with two intravitreal triamcinolone acetonide injections (Triesence 40 mg/mL, Novartis Finland Ltd.) with 1 week interval to each eye. This method[25],[26] may induce ocular hypertension even up to 60 days in rabbits.[25]
# The rabbits were anesthetized with 0.4 mg/kg, s.c. medetomidine (Domitor vet 1 mg/mL, Orion Pharma, Espoo, Finland) and 20 mg/kg s.c. ketamine (Ketaminol vet 50 mg/mL, Pfizer Oy Animal Health, Espoo, Finland). Mydriasis was induced with topical tropicamide eyedrops (Oftan Tropicamid 5 mg/mL, Santen Pharmaceutical Co., Ltd., Tampere, Finland) and the ocular surface was anesthetized with oxybuprocaine eye drop (Oftan Obucain 4 mg/mL, Santen Pharmaceutical Co., Ltd., Tampere, Finland). Thereafter, intravitreal injection of triamcinolone acetonide (100 μL) was given with a 31G needle and syringe. After injection, the eyes were moisturized with carbomer gel (Viscotears 2 mg/g, Dr. Gerhard Mann chem.-pharm. Fabrik GmbH, Berlin, Germany) and the anesthesia was antagonized with 1 mg/kg atipamezole s.c. (Antisedan vet 5 mg/mL, Orion Pharma, Espoo, Finland).
# After the second injection, IOP was allowed to settle for 10 days before the experiments were performed. […] Induction of ocular hypertension is presented in Appendix Figure 3. The IOP-lowering effects of the molecules were investigated sequentially, each test initiating once baseline IOP levels was attained.
# The IOP levels in the rabbits were measured with a tonometer (Tonometer Pro, Icare Finland Ltd.). After baseline IOP measurements, a single eye drop (25 μL) was applied to the left eye, whereas the right eye was not treated. After eye drop instillation, the eyelids were kept open manually for 1 min. The IOP was measured from both eyes of the rabbits at 0.5, 1, 2, 3, 4, 5, 6, 7, and 8 h after eye drop instillation. In the case of the pigmented rabbits, the measurements were continued until 10 h postinstillation, and further until the IOP had returned to the normal baseline.
# The CAIs were tested in the same rabbits to minimize interindividual data variation. Washout periods of at least 3 days were used between instillation of different compounds. The experiments started always at 8 a.m. to eliminate bias due to diurnal IOP fluctuation. At each time point, the pressure was measured three times with the same eye, and the average values were calculated and used in data analysis.
# [2] = target: T1, human carbonic anhydrase II (Homo sapiens, UniProt P00918); assay: Multiparametric surface plasmon resonance (MP-SPR) interaction kinetics with immobilized hCAII; assay type: binding; conditions: MP-SPR, 25 °C, 1:1 model
# T1 construct: purchased Sigma
# Description: All MP-SPR measurements were conducted at 25 °C using carboxymethyl dextran hydrogel-coated (CMD-3DM) sensors (BioNavis) and were based on the protocol described by Rogez-Florent et al.[22]
# Human carbonic anhydrase isoenzyme II (Sigma) was immobilized using a standard amine coupling procedure with the Amine Coupling Kit (BioNavis) and phosphate buffered saline (PBS) (20 mM phosphate buffer, 150 mM NaCl, pH 7.4) as the background buffer. Before immobilization, the sensor surface was cleaned with 2 M sodium chloride and 10 mM sodium hydroxide for 6 min at a flow rate of 30 μL/min. Then, a constant flow rate of 10 μL/min was maintained throughout the immobilization steps. The surface was activated for 7 min with 200 mM 1-ethyl-3-(3-(dimethylamino)propyl)-carbodiimide (EDC) and 50 mM N-hydroxysuccinimide, immediately followed by a 5 min injection of 45 μg/mL hCAII solution in 10 mM acetate buffer, pH 5.5. In the reference flow channel, no enzyme was immobilized. Residual activated groups of the dextran matrix were deactivated by a 7 min injection of 1 M ethanolamine HCl, pH 8.3.
# For analyzing CAIs, 1% (v/v) DMSO in PBS, pH 7.4, was used as a running buffer. All CAIs were dissolved in 100% DMSO and stored as 50 mM stock solutions. These stock solutions were further diluted with the running buffer and analyzed using a 3-fold (3–1000 nM) dilution series. […] Each analyte was injected at a flow rate of 100 μL/min, with an association time of 2 min and a dissociation time of 10 min. […] Seven concentrations were measured for each CAI per cycle, and a “wash all” step with running buffer was performed at the end of each cycle to minimize the carry over effects. Each CAI were assayed in triplicate across three independent experiments.
# The acquired data were processed using MP-SPR Navi Data Viewer software (version 6.7.0.1, BioNavis) employing the weighted centroid method for determining the SPR peak angular position. Signals from the reference flow channel were subtracted from the corresponding signals of the flow channel containing immobilized hCAII. The moment of sample injection was selected as the zero-time point, where both the time and MP-SPR response were set to zero. Processed data were globally fitted to a simple 1:1 interaction model using TraceDrawer software (version 1.9.2, Ridgeview Instruments AB, Sweden) to obtain kinetic parameters.
compound,measurement,setting,value
C/C(=N\Nc1ccc(S(N)(=O)=O)cc1)c1cccnc1 [A01],duration of IOP reduction,"[1]; hypertensive pigmented rabbits, single eye drop",14 days
same,duration of IOP decrease,"[1]; pigmented rabbits, single eye drop",2 weeks
same,ratio (AUCpigm/AUCalbino) of IOP response,[1]; pigmented vs albino rabbits,85 and 85.5
same,ka,[2],0.57 ± 0.33 10^6 M^–1 s^–1
same,kd,[2],1.45 ± 0.15 10^–2 s^–1
same,Kd,[2]; read-out: KD,36.9 ± 23.4 nM
